# PubChem BioAssay AID624344 (Sanford-Burnham Center for Chemical Genomics, 2012)
# Active and inactive are the calls of the source. How the calls were made is not given here. Peptide text beside a SMILES is read from it. * marks the point of attachment. CH2Cl = ClC*
# Columns and labels:
# [1] = test system: Cytotoxicity; test: inhibitors of PAF-induced NFkB signaling in CF airway cells, dose response, cell-based, uHTS hits, panel, cytotoxicity readout (AID 624344); conditions: CF bronchial epithelial cells, mean of runs
# [2] = as above; conditions: CF bronchial epithelial cells, PAF-induced NFkB reporter inhibition; with PAF, mean of runs
Structure (SMILES),IC50 [1],IC50 [2]
C=CCn1cnc2c(c1=O)c1nc3ccccc3nc1n2/N=C/c1cc(OC)c(OC)c(OC)c1,5.94 µM,4.18 µM
CCOc1ccc(CCN2C(=S)N([C@@H](CC(C)C)CN3CCCC3CN3C(=S)NC[C@@H]3CC(C)C)C[C@@H]2Cc2ccc(O)cc2)cc1 (stereo partly drawn),64.1 µM (inactive),14.9 µM
C=C1C(=O)O[C@@H]2[C@H]1CC[C@H](C)[C@]1(O)CCC(=O)[C@@]21C,40 µM,2.37 µM
CCOc1ccc(NCc2cc3c(C(C)(C)C)nn(-c4ccccc4)c3[nH]c2=O)cc1,27.4 µM,7.26 µM
Cc1ccc(S(=O)(=O)Nc2cccc3cccnc23)c([N+](=O)[O-])c1,> 79 µM (inactive),2.84 µM
N#Cc1c(-c2ccc(Cl)cc2)n(O)c2ccccc12,3.98 µM,2.85 µM
COc1cc(-c2cnc3c(NC=O)cc(-c4ccc(C)cc4)cn23)cc(OC)c1OC,22 µM,> 79 µM (inactive)
CC(C)CN=C(NS(=O)(=O)c1ccccc1)C(Cl)(Cl)Cl,44.5 µM,2.93 µM
COc1cccc(-c2ccc3ncnc(NCc4cc(C)cs4)c3c2)c1,26.9 µM,3.86 µM
Oc1ccc(Br)cc1-c1nc2cnccn2c1NC1CCCC1,14.5 µM,3.04 µM
CC(=O)c1cccc(NC(=O)Nc2cccnc2)c1,40.3 µM,0.608 µM
COc1cccc(NC(=O)CN(C)CC(=O)Nc2ccc(C)c([N+](=O)[O-])c2)c1,> 79 µM (inactive),6.21 µM
Nc1ncnc2c1c(-c1ccc(Oc3ccccc3)cc1)cn2C1CCCC1,11.3 µM,6.66 µM
Oc1ccc(C[C@H]2CNC(=S)N2CC2CCCN2C[C@H](Cc2ccc(O)cc2)N2C[C@H](Cc3ccc(O)cc3)N(CC3CCCCC3)C2=S)cc1 (stereo partly drawn),15.4 µM,10.3 µM
C=CC[C@]12CC=CC(=O)[C@@]1(O)O[C@H](c1ccc(OC)c(OC)c1)[C@H]2C,6.69 µM,4.61 µM
O=C1NCCc2c1[nH]c1c(Cl)ccc(Cl)c21,11 µM,1.54 µM
Nc1nc(N)nc(-c2cc(O)ccc2O)n1,21.2 µM,3.31 µM
CCc1ccc(N(CC)c2ncnc3nc[nH]c23)cc1,> 79 µM (inactive),1.82 µM
CCOC(=O)c1ccc(NC(=O)Nc2nncs2)cc1,64 µM (inactive),9.39 µM
Cc1ccc(CNc2ncnc(N)c2[N+](=O)[O-])cc1,73.3 µM (inactive),6.41 µM
CCCCCCCCCc1nc2sc3c(c2c(=O)n1NC(=O)c1ccc([N+](=O)[O-])cc1)CC(C)(C)OC3,43.8 µM,5.52 µM
Brc1cccc(CSc2nnc(-c3ccncc3)o2)c1,> 79 µM (inactive),6.88 µM
O=[N+]([O-])c1ccc2ncnc(N3CCN(Cc4ccc5c(c4)OCO5)CC3)c2c1,> 79 µM (inactive),2.62 µM
CCCc1cc(-c2[nH]ncc2-c2ccc3c(c2)OCCCO3)c(O)cc1O,25.9 µM,8.75 µM
Cc1ccc(CCC(=O)Nc2ncc(Cc3cc(Cl)ccc3Cl)s2)o1,13.2 µM,19.2 µM
COc1ccc(-c2cncnc2-c2ccc(OC)cc2O)cc1,> 79 µM (inactive),4.39 µM
CC(=O)c1ccc(-c2cnc3c(NC=O)cc(-c4ccc(C(=O)NC5CC5)cc4)cn23)cc1,27.4 µM,4.25 µM

Structure (SMILES),IC50 [1],IC50 [2]
COc1ccccc1-n1nnnc1S(=O)(=O)Cc1ccc(Cl)cc1,2.44 µM,1.28 µM
CCOCC(=O)NC1CCc2cc(OC(=O)COCC)c(OC)c(OC)c2-c2ccc(SC)c(=O)cc21 (stereo not drawn),44.5 µM,inactive
Cc1ccc(-c2n[nH]c(=S)n2/N=C/c2ccncc2)cc1,53.1 µM (inactive),2.63 µM
COc1ccc2nc(Nc3nc(CSc4nc5ccccc5[nH]4)cc(=O)[nH]3)nc(C)c2c1,44 µM,5.97 µM
CC(=O)Oc1ccccc1C(=O)Oc1ccc(/C=N/n2cnnc2)cc1,59.5 µM (inactive),inactive
Cc1cccc(NC(=O)c2cc(-c3ccc(C)s3)nc3ccccc23)n1,42.4 µM,5.26 µM
Cc1ccc(C(=O)c2cncc(Br)c2)cc1,> 79 µM (inactive),13 µM
COc1ccc(-n2nc(C(=O)NCC(=O)Nc3cc(OC)c(OC)c(OC)c3)c3ccccc3c2=O)cc1Cl,23.1 µM,1.61 µM
COc1ccc(-c2cc(=O)oc3cc(OC(=O)C4CCCCC4)ccc23)cc1,> 79 µM (inactive),2.37 µM
Cc1ncc(CC(=O)n2cc(C(=O)c3cc(Cl)ccc3O)cn2)s1,44.5 µM,7.56 µM
C[C@@H]1CN([C@H](C)CO)C(=O)c2cc(NC(=O)Nc3ccc(C(F)(F)F)cc3)ccc2O[C@H]1CN(C)S(=O)(=O)c1ccccc1,77.2 µM (inactive),9.21 µM
CCOC(=O)c1[nH]c(C)c(C(=O)N2CCc3ccccc32)c1C,44.5 µM,> 79 µM (inactive)
Cc1nc([N+](=O)[O-])c(Sc2nc3ccc([N+](=O)[O-])cc3[nH]2)n1Cc1ccccc1,8.03 µM,3.5 µM
O=C(NCCN1CCN(c2ccccc2)CC1)c1cccc(Br)c1,57.4 µM (inactive),18.9 µM
CC(=O)OCCCNc1cc(Sc2ccc(Cl)cc2)c2nonc2c1[N+](=O)[O-],11.1 µM,13 µM
CN(C)c1ccnc2sc3c(=O)n(Cc4ccccc4)cnc3c12,> 79 µM (inactive),1.27 µM
COc1ccc(Cc2nnc(SCc3ccc([N+](=O)[O-])cc3)o2)cc1,41.8 µM,1.76 µM
CC(=O)NC(CC(C)C)C(=O)NC(Cc1ccccc1)C(=O)CCl (stereo not drawn) (Ac-Leu-Phe-CH2Cl; configuration not given here),17.6 µM,2.83 µM
COc1ccc2c(c1)[nH]c1c(C)nccc12,> 79 µM (inactive),3.77 µM
Cc1nn(-c2ccccc2)c(N2CCCC2)c1/C=N/NC(=O)c1cc(-c2ccccc2)nc2ccccc12,58.7 µM (inactive),5.62 µM
Cc1ccc(NC(=O)/C=C/c2ccco2)nc1,> 79 µM (inactive),8.27 µM
COc1ccc(C2CNC(=O)C2)cc1OC1CCCC1 (stereo not drawn),40.7 µM,11.3 µM
O=C(NCCC1=CCCCC1)c1coc(=O)c(Br)c1,10.7 µM,3.01 µM
O=C(CN1C(=O)CCC1=O)Nc1nc(-c2nc3ccccc3s2)cs1,> 79 µM (inactive),4.92 µM
CC(C)(C)c1nc(NC(=O)Nc2ccccc2)sc1Br,12.6 µM,6.59 µM
COc1ccc(-c2cnc3c(NC=O)cc(-c4ccc(C(=O)N5CCOCC5)cc4)cn23)cc1OC,14.7 µM,2.94 µM
CCS(=O)(=O)c1ncc(Cl)c(C(=O)Nc2ccccc2OC)n1,7.42 µM,1.82 µM

Structure (SMILES),IC50 [1],IC50 [2]
S=c1[nH]nc(-c2ccncc2)n1/N=C/C(Cl)=C\c1ccccc1,35 µM,1.06 µM
COc1cccc(-c2ccc3ncnc(NCc4cccnc4)c3c2)c1,11.3 µM,1.23 µM
C=C1C(=O)[C@]23C[C@H]1CC[C@H]2[C@]1(C)[C@@H](O)CC[C@@](C)(C(=O)O)[C@H]1C[C@@H]3O,12.5 µM,2.04 µM
Nc1ncc(-c2ccccc2)c(-c2ccc(O)cc2O)n1,> 79 µM (inactive),4.01 µM
O=C(/C=C/c1cccc([N+](=O)[O-])c1)n1cnc2ccccc21,11.2 µM,1.99 µM
COc1ccc2[nH]c3c(c2c1)CCNC3=O,> 79 µM (inactive),1.37 µM
CNC(=O)c1ccc(NC(=O)C2CCN(c3ncnc4sc(C)c(C)c34)CC2)cc1,> 79 µM (inactive),5.49 µM
CC[C@H](CO)Nc1nc(Nc2cccc(Cl)c2)c2ncn(C(C)C)c2n1,8.91 µM,3.53 µM
O=C(Nc1ccc(F)cc1)Nc1ccc(N2CCCC2)c(S(=O)(=O)Nc2ccccc2Cl)c1,42.5 µM,7.2 µM
COc1ccc([C@]2(C(C)C)ON(c3ccccc3C(F)(F)F)C2=O)cc1,> 79 µM (inactive),11.1 µM
COc1ccccc1[C@]1(C)ON(c2ccccc2C(F)(F)F)C1=O,66.9 µM (inactive),4.14 µM
COc1cccc(-c2nnc3n2N=C(C(C)(C)C)CS3)c1,11.4 µM,0.442 µM
O=C(NNc1ccccc1Br)C(O)(c1cccc(C(F)(F)F)c1)c1cccc(C(F)(F)F)c1,7.73 µM,5.72 µM
C[C@H]1C[C@@H](C)C(=O)[C@@H]([C@H](O)CC2CC(=O)NC(=O)C2)C1,8.86 µM,0.37 µM
CC1=C(C(=O)OCc2ccc3c(c2)OCO3)C(c2cccc([N+](=O)[O-])c2)NC(=O)N1 (stereo not drawn),> 79 µM (inactive),2.71 µM
COc1ccc(-c2csc(/C(C#N)=C\c3ccc(O)c([N+](=O)[O-])c3)n2)cc1OC,45.9 µM,2.82 µM
CCN1CCN(Cc2ccc(NC(=O)c3ccc(C)c(NC(=O)c4ccc5n[nH]nc5c4)c3)cc2C(F)(F)F)CC1,33.3 µM,2.58 µM
O=C(CCl)N(Cc1cc(=O)[nH]c2ccccc12)c1ccccc1,2.98 µM,1.48 µM
Nc1ncnc(N2CCc3ccccc32)c1[N+](=O)[O-],29.7 µM,0.651 µM
COc1ccc2c(c1)c(C(C)=O)c(C)n2-c1ccc(C(C)=O)cc1,44.5 µM,2.83 µM
CCNC(=O)C1(C)CCCN(Cc2ccc(-c3ccccc3)o2)C1 (stereo not drawn),> 79 µM (inactive),9 µM
NC(=O)c1nsc(C(=O)N(c2ccccc2)C(C(=O)NCc2ccc(F)cc2)c2ccc(O)cc2)c1N (stereo not drawn),8.81 µM,4.75 µM
C=CC[C@@H](CC(=O)N[C@H](CO)Cc1ccccc1)C(=O)NC[C@H](OC(=O)[C@@H](CC=C)Cc1ccc(F)cc1)c1ccccc1,8.91 µM,5.6 µM
Cc1ccc(NC(=O)c2ccccc2NS(=O)(=O)c2ccc(Cl)s2)cc1S(=O)(=O)N1CCOCC1,8.23 µM,3.36 µM
C[C@H](O)[C@@H]1CN2CCc3c([nH]c4ccc(-c5ccc6c(c5)OCO6)cc34)[C@@H]2C[C@@H]1N(C)C(=O)Nc1ccc(F)cc1,29 µM,9.85 µM
